Data taken from US20070032464A1, “Methods of treating cancers” (priority 2004, published 2007).

Key:
liver X receptor alpha = target: T1, liver X receptor alpha (Homo sapiens, UniProt Q13133); experiment: gene transactivation (luciferase reporter) assay in human embryonic kidney 293 cells, liver X receptor alpha; assay type: cell-based; settings: 1 to 10 μM
T1 sequence (Q13133 1-447): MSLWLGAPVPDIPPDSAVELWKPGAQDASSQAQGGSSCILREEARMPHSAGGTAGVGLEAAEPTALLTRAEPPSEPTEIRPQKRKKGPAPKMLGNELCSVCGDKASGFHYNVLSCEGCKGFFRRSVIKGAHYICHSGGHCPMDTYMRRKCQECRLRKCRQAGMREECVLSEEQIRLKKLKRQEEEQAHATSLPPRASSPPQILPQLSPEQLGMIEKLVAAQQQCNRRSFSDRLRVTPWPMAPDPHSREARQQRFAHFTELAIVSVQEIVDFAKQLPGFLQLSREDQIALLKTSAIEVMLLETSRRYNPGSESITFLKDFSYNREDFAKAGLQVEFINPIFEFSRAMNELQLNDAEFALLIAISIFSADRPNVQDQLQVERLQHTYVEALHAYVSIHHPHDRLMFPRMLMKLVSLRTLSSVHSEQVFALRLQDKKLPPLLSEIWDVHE
T1 sequence (P19793 1-462 partner): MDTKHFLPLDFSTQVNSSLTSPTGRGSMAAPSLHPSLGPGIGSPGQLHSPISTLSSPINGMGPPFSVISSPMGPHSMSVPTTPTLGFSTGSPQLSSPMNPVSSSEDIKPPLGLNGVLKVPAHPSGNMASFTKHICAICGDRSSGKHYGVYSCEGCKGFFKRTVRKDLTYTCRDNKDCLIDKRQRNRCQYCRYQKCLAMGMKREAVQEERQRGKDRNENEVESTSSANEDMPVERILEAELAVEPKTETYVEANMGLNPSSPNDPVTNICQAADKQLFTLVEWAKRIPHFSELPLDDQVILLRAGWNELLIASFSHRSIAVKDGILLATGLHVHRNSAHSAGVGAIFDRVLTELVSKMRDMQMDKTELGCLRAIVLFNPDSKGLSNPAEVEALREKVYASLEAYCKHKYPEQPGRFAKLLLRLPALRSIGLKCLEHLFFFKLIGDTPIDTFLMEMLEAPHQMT
Experimental: (§1) See, e.g., Song, C. et al., Steroids, 2000, 65, 423-427.
(§2) Specifically, human embryonic kidney 293 cells were seeded into a 48-well culture plate at 10^5 cells per well in a Dulbecco's modified Eagle's medium (DMEM) supplemented with 10% fetal bovine serum. After incubation for 24 hours, the cells were transfected by the calcium phosphate coprecipitation method with 250 ng of a pGL3/UREluc reporter gene that consisted of three copies of AGGTCAagccAGGTCA fused to nucleotides −56 to +109 of the human c-fos promoter in front of the firefly luciferase gene in the plasmid basic pGL3 (Promega, Madison, Wis.), 40 ng pSG5/hRXRα, 40 ng pSG5/rUR or CMX/hliver X receptorα, 10 ng pSG5/hGrip1, 0.4 ng CMV/R-luc (transfection normalization reporter, Promega) and 250 ng carrier DNA per well. […]
(§3) After incubation for another 12 to 24 hours, the cells were washed with phosphate buffer saline and then refed with DMEM supplemented with 4% delipidated fetal bovine serum. […] After incubation for another 24 to 48 hours, the cells were harvested and the luciferase activity was measured with a commercial kit (Promega Dual luciferase II) on a Monolight luminometer (Becton Dickenson, Mountain View, Calif.).

[1] = target: T2, liver X receptor beta (i.e., UR) (Rattus norvegicus, UniProt Q62755); experiment: gene transactivation (luciferase reporter) assay in human embryonic kidney 293 cells, liver X receptor beta (UR); assay type: cell-based; settings: 1 to 10 μM
T2 sequence (Q62755 1-446): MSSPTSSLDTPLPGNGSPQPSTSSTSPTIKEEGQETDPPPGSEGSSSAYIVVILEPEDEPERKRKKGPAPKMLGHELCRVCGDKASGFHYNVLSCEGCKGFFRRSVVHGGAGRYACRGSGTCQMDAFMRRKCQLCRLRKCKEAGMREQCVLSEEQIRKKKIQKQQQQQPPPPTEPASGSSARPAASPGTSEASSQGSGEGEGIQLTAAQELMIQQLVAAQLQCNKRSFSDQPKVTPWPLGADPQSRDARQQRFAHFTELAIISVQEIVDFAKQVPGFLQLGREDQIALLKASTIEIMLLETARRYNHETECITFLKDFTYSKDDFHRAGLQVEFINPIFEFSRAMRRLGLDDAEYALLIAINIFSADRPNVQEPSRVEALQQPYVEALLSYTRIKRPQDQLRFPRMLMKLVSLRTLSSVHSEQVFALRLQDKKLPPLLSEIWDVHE
T2 sequence (P19793 1-462 partner): T1 sequence (P19793 1-462 partner)
Experimental: as §1, §2, §3

SMILES | liver X receptor alpha agonistic activity (liver X receptor alpha) | liver X receptor beta (UR) agonistic activity [1]
CON(C)C(=O)CC[C@@H](C)[C@H]1CC[C@H]2[C@@H]3C[C@H](O)[C@@H]4C[C@H](O)CC[C@]4(C)[C@H]3CC[C@]12C [hypocholamide, N-methyl-N-methoxy-3α,6α-dihydroxy-5β-cholanoic acid-24-amide] | unexpectedly potent agonists | unexpectedly potent agonists
CC(CCC(O)(C(F)(F)F)C(F)(F)F)C1CCC2C3CC(O)C4CC(O)CCC4(C)C3CCC12C (stereo not drawn) [hypocholaride, 3α,6α,24-trihydroxy-5β-24,24-di(trifluoromethyl)-cholestane] | unexpectedly potent agonists | unexpectedly potent agonists
